Reference: the supplement of paper PMC10307832

Tests used:
Test in all cases: relative viability (nuclei count vs DMSO), 5 days (fraction); higher = more cells survive
GSK-J4 + Decitabine = compound: CCOC(=O)CCNc1cc(N2CCc3ccccc3CC2)nc(-c2ccccn2)n1 [GSK-J4] + Nc1ncn([C@H]2C[C@H](O)[C@@H](CO)O2)c(=O)n1 [Decitabine] (partner 2 µM)
Procedure, shortened: (§1)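 A single step with final 0.05% Triton X-100, 1% formaldehyde and 1 ug/ml Hoechst fixed the cells and stained nuclei 5 days after treatment. Lung cancer cell lines in 1536-well plates had been treated by pin tool the day after seeding with one drug alone or a fixed anchor-drug dose plus five library-drug doses (not always all listed) in √10 steps, and nuclei were counted on 4× images. Relative viability is the ratio of nuclei in treated wells to nuclei in vehicle wells, taken as the median of duplicate plates.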

AZ3146 + Luminespib = compound: CN1CCC(CC1)OC2=CC(=C(C=C2)NC3=NC=C4C(=N3)N(C(=O)N4C)C5CCCC5)OC [AZ3146] + CCNC(=O)c1noc(-c2cc(C(C)C)c(O)cc2O)c1-c1ccc(CN2CCOCC2)cc1 [Luminespib] (partner 0.01 µM)
Procedure, shortened: as §1

AZ3146 + Dasatinib = compound: CN1CCC(CC1)OC2=CC(=C(C=C2)NC3=NC=C4C(=N3)N(C(=O)N4C)C5CCCC5)OC [AZ3146] + Cc1nc(Nc2ncc(C(=O)Nc3c(C)cccc3Cl)s2)cc(N2CCN(CCO)CC2)n1 [Dasatinib] (partner 0.075 µM)
Procedure, shortened: as §1

GSK-J4 + Bortezomib = compound: CCOC(=O)CCNc1cc(N2CCc3ccccc3CC2)nc(-c2ccccn2)n1 [GSK-J4] + CC(C)C[C@H](NC(=O)[C@H](Cc1ccccc1)NC(=O)c1cnccn1)B(O)O [Bortezomib] (partner 0.002 µM)
Procedure, shortened: as §1

Cell Line	relative viability (GSK-J4 + Decitabine; first compound 0.5 µM)	relative viability (GSK-J4 + Decitabine; first compound 1.581 µM)	relative viability (GSK-J4 + Decitabine; first compound 5 µM)	relative viability (GSK-J4 + Decitabine; first compound 15.81 µM)	relative viability (GSK-J4 + Decitabine; first compound 50 µM)	relative viability (AZ3146 + Luminespib; first compound 0.08 µM)	relative viability (AZ3146 + Luminespib; first compound 0.253 µM)	relative viability (AZ3146 + Luminespib; first compound 0.8 µM)	relative viability (AZ3146 + Luminespib; first compound 2.53 µM)	relative viability (AZ3146 + Luminespib; first compound 8 µM)	relative viability (AZ3146 + Dasatinib; first compound 0.08 µM)	relative viability (AZ3146 + Dasatinib; first compound 0.253 µM)	relative viability (AZ3146 + Dasatinib; first compound 0.8 µM)	relative viability (AZ3146 + Dasatinib; first compound 2.53 µM)	relative viability (AZ3146 + Dasatinib; first compound 8 µM)	relative viability (GSK-J4 + Bortezomib; first compound 0.5 µM)	relative viability (GSK-J4 + Bortezomib; first compound 1.581 µM)	relative viability (GSK-J4 + Bortezomib; first compound 5 µM)	relative viability (GSK-J4 + Bortezomib; first compound 15.81 µM)	relative viability (GSK-J4 + Bortezomib; first compound 50 µM)
NCI-H1395	0.781	0.718	0.632	0.751	0.661	0.72	0.691	0.634	0.772	0.719	0.415	0.381	0.327	0.42	0.398					
NCI-H1563						0.465	0.525	0.477	0.51	0.511	0.482	0.48	0.441	0.422	0.448	0.809	0.952	0.776	0.66	0.808
NCI-H1623						0.486	0.591	0.612	0.604	0.556	0.482	0.455	0.498	0.601	0.556					
NCI-H1648	0.569		0.718		0.482															
NCI-H1703																0.377	0.377	0.234	0.355	0.436
NCI-H1793	0.394	0.371	0.305	0.204	0.196	0.208	0.173	0.202	0.145	0.178	0.303	0.412	0.404	0.348	0.423					
NCI-H1944	0.411	0.381		0.367	0.412	0.617	0.786	0.777	0.906	1.06	0.171	0.194	0.214	0.239	0.229					
NCI-H2170	0.453	0.422	0.459	0.463	0.464	0.703	0.827	0.755	0.576	0.616	0.497	0.455	0.598	0.61	0.491					
NCI-H2228						0.133	0.149	0.162	0.145	0.146	0.466	0.562	0.579	0.511	0.483	0.745	0.913	0.973	0.906	0.937
NCI-H2342	0.645	0.691	0.776	0.75	0.7	0.624	0.719	0.901	0.698	0.688	0.293	0.275	0.29	0.29	0.345					
SK-MES-1	0.389	0.359	0.386	0.321	0.323	0.657	0.581	0.769	0.847	0.585	0.42	0.311	0.387	0.316	0.258					
SW 900	0.376	0.354	0.469	0.48	0.343	0.176	0.167	0.18	0.184	0.167	0.479	0.456	0.503	0.666	0.337					
